This is an account of results in patent US10350158B2, “2′ fluoro-modified RNAs as immunostimulators” (DUKE UNIVERSITY, priority 2013, dated 2019).

Series [1] relates to WM266-4 cells. Nature of the series: Apoptosis / cell death by Annexin V-PE and 7-AAD flow cytometry. The following applies: aptamer treated with bacterial alkaline phosphatase (BAP), 0.125 μg/ml. The class given is cell-based, human. The procedure:
For the intracellular delivery of immune stimulatory RNAs, RNAs were transfected with the DharmaFECT® Duo liposomal transfection reagent (Thermo Scientific, Waltham, Mass.) at a transfection reagent (μl):RNA (μg) ratio of 3.75:1, according to the manufacturer's instructions. Unless otherwise stated, for the induction of innate immune responses and apoptosis, immune stimulatory RNAs (500 ng/ml) were transfected into 50 to 70% confluent cells. Cells were incubated with an RNA-transfection agent complex for 5 h, followed by replenishment with fresh culture medium. […]
Growth inhibition relative to untreated cells was quantified at 72 h after RNA transfection using an MTT Cell Proliferation Assay Kit (Cayman Chemicals, Ann Arbor, Mich.), according to the manufacturer's instructions. The percent growth inhibition was calculated by using the following equation: % growth inhibition=([O.D.]untreated−[O.D.]treated)/[O.D.]untreated×100. The induction of cell death was measured 48 h after RNA transfection by flow cytometry after staining with Annexin V-PE and 7-Aminoactinomycin D (7-AAD) using the PE Annexin V Apoptosis Detection Kit I (BD Biosciences, San Jose, Calif.) and analyzed using the CellQuest software (BD Biosciences).
(Flow cytometry measures light scatter and fluorescence of single cells or particles in a stream.)

Series [2] concerns IFNβ. As to the kind of experiment: IFNβ ELISA of transfected melanoma cell supernatants. The class given is cell-based, human. The following applies: aptamer treated with bacterial alkaline phosphatase (BAP), 0.125 μg/ml. The procedure:
For the intracellular delivery of immune stimulatory RNAs, RNAs were transfected with the DharmaFECT® Duo liposomal transfection reagent (Thermo Scientific, Waltham, Mass.) at a transfection reagent (μl):RNA (μg) ratio of 3.75:1, according to the manufacturer's instructions. Unless otherwise stated, for the induction of innate immune responses and apoptosis, immune stimulatory RNAs (500 ng/ml) were transfected into 50 to 70% confluent cells. Cells were incubated with an RNA-transfection agent complex for 5 h, followed by replenishment with fresh culture medium. To electroporate cells, 1×10^5 cells suspended in 200 μl Opti-MEM I (Invitrogen) were mixed with 1 μg of immune stimulatory RNAs or 5 μg of 2'Fluoro pyrimidine ribonucleoside triphosphate in 2-mm cuvettes and were electroporated at 300 V for 500 μs using an Electro Square Porator ECM 830 (BTX, San Diego, Calif.). For the knockdown of RNA-sensing PRRs, cells were transfected with PRR-specific siRNAs (25 nM) twice at 2-day intervals using DharmaFECT®-1 (Thermo Scientific). At 5 h after the second siRNA transfection, cells were harvested, replated into a 96-well plate and incubated overnight. Cells were then treated with immune stimulatory RNA transfections. Staurosporine (2 μM) (Sigma, St Louis, Mo.) and recombinant human IFNβ (20 ng/ml) (PeproTech, Rocky Hill, N.J.) were used as positive controls of anti-melanoma cytotoxicity. […] (100 ng/ml) (eBioscience, San Diego, Calif.) was added directly to the growth media of cells to neutralize IFNβ. Cells were transfected with RNAs as described above. At 24 hours after RNA transfection, culture supernatants were collected and stored at -80° C. for later analyses. The production of human IL-8 was analyzed with a human IL-8 ELISA kit (eBioscience). IFN-β production was determined with a human IFN-β ELISA kit (PBL Biomedical Laboratories, Piscataway, N.J.) by following the manufacturer's instructions.
A general note: An ELISA detects its analyte on a solid surface through an enzyme-linked reagent.

The target in series [3] is T1, human TLR3 (Homo sapiens, UniProt O15455).
T1 construct: host or cells: HEK293 (HEK-hTLR3-NFκB/SEAP)
T1 sequence (O15455 24-904): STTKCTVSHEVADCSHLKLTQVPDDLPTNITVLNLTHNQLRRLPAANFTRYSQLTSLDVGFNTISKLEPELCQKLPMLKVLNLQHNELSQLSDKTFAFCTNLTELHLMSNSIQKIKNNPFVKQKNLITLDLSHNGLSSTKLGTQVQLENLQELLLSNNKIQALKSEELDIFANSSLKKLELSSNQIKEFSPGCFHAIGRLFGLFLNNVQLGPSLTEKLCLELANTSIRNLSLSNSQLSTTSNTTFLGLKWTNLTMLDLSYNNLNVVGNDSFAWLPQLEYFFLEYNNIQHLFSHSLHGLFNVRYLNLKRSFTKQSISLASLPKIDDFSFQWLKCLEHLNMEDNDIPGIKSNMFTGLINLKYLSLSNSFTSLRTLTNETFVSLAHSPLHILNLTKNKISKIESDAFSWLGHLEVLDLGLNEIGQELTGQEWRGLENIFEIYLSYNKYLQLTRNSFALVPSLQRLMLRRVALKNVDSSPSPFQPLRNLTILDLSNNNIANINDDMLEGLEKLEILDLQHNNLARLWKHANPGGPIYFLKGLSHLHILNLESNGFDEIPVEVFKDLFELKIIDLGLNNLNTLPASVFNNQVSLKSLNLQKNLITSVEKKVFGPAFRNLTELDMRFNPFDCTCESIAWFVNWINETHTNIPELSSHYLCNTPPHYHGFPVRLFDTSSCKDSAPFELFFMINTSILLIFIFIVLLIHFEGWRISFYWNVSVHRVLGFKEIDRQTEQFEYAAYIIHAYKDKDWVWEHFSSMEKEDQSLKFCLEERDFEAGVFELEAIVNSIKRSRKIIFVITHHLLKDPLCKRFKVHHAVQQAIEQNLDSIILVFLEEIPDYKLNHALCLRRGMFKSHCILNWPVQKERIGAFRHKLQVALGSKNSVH
As to the kind of experiment: HEK-hTLR3-NFκB/SEAP reporter assay. The class given is cell-based. Conditions: QUANTI-BLUE. The procedure:
(§1) The human TLR3 reporter cell, HEK-hTLR3-NFκB/SEAP was purchased from Invivogen. These cells were stably co-transfected with the human TLR3 gene and an inducible SEAP (secreted embryonic alkaline phosphatase) reporter gene into HEK293 cells. The SEAP gene is placed under the control of NF-κB and AP-1. […] SEAP gene expression was measured using the SEAP detection media QUANTI-BLUE (Invivogen), according to the manufacturer's instructions. FIG. 3B is a graph showing that TLR7 is not stimulated by the ssRNAs. Human TLR7-expressing HEK293 cells were kindly provided by Dr. Todd Brennan (Duke University, Durham, N.C.). Treatment with R848 but not with polyI:C, polyI:C-DF and 5′ppp 2′F 10F-DF complexes stimulated HEK-TLR7 cells to produce the inflammatory cytokine IL-8. The data represent the mean of two experiments. Error bars represent the S.D.
(Reporter assays use an easily measured gene product as a stand-in for the process of interest.)

Series [4] has as its target T2, Human TLR7 (Homo sapiens, UniProt Q9NYK1).
T2 construct: expressed in transfected cells; host or cells: HEK293 (HEK-TLR7), gift of Dr. Todd Brennan, Duke University
T2 sequence (Q9NYK1 27-1049): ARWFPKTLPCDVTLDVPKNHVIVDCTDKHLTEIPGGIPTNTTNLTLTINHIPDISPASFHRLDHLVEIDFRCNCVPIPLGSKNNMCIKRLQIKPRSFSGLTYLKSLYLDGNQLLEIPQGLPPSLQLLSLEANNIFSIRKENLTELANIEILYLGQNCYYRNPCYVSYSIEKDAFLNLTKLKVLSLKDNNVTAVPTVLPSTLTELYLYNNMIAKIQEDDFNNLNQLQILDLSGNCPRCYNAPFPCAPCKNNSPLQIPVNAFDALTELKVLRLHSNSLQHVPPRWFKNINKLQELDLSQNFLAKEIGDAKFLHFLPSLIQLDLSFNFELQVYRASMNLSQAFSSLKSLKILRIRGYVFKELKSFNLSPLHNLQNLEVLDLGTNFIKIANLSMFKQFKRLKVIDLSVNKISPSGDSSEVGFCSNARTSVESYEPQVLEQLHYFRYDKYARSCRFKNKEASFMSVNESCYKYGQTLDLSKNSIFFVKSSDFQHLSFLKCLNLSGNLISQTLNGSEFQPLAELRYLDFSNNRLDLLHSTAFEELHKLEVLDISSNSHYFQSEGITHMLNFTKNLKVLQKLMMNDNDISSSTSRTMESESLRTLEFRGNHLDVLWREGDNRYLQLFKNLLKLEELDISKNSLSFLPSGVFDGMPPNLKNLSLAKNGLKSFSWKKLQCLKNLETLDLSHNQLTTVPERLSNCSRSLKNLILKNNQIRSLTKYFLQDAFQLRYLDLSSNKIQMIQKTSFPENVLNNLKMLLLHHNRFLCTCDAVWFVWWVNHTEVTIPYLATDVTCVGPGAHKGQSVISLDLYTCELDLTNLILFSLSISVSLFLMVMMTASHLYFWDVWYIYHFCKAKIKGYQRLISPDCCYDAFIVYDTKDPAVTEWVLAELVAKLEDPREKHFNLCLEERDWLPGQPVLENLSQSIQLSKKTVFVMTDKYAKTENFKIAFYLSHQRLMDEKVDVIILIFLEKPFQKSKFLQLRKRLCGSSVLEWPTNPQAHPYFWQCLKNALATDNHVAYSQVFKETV
As to the kind of experiment: IL-8 production by human TLR7-expressing HEK293 cells. The class given is cell-based. The procedure:
as §1

Series [5] relates to RIG-I, MDA-5, and PKR. Nature of the series: Western blot of RNA-sensing PRR expression after transfection. The class given is cell-based, human. The following applies: 24 hours after treatment. On the procedure:
FIG. 2A is a set of FACS plots showing induction of apoptosis. WM266-4 cells were incubated with either liposome (DF) alone or 5′ppp 2′F 10F-liposome complex (10F/DF). At 5 h after incubation, cells were replenished with fresh culture medium. Cells were then incubated for an additional 48 hours, harvested and analyzed for cell death. FIG. 2B is a set of Western blots showing activation of caspases and PARP after transfection. WM266-4 cells were either mock-treated, treated with the 5′ppp 2′F 10F without the transfection reagent, or with the 5′ppp 2′F 10E-transfection reagent complex at the indicated concentrations (1 μg/ml or 0.5 μg/ml). The activation of caspase-7, -9, and PARP was assessed by western blot using antibodies specific to the activated (cleaved) proteins (24 h after treatment). Staurosporine-treated cells were used as a positive control. […] The growth inhibition was assessed at 72 h after electroporation. […] WM266-4 cells were treated as in (FIG. 2B), and the expression of RIG-I, MDA-5, and PKR was analyzed at 24 hours after treatments. […]
Cell lysates were prepared in 1×RIPA buffer (Sigma) in the presence of the complete protease inhibitor cocktail (Roche). […] When different proteins were sequentially detected on the same membrane, membranes were treated for 8 minutes with Restore Western Blot Stripping Buffer (Thermo Scientific), washed, blocked and probed again, as described above. […]

Strand notation (5' to 3'): a small letter for the sugar, then the base; units joined by * are phosphorothioate-linked, units joined directly phosphodiester-linked; [ ] holds rarer units or linkages, { } end groups; capitals alone tell only the bases. {ppp} = triphosphate; r = 2'-OH (RNA); f = 2'-fluoro

For the molecule “9.14T10: 5′ppp 2′F ssRNA aptamer, 60 nt, von Willebrand Factor-specific, SEQ ID NO: 6 ({ppp}-rGrGrGrArGrGfUrGrGrAfCrGrArAfCfUrGfCfCfCfUfCrArGfCfUrAfCfUfUfUfCrAfUrGfUfUrGfCfUrGrAfCrGfCrAfCrArGrAfCrGrAfCfUfCrGfCfUrG) [Aptamer 9.14T10]”, the “apoptosis after dephosphorylation of the aptamer” value in series [1] is given as “partially prevented”. In addition, in series [2], the “IFNβ production after dephosphorylation of the aptamer” value is recorded as “partially prevented”. For the molecule `CCOCc1nc2c(N)nc3ccccc3c2n1CC(C)(C)O` [Aptamer R848, R848], the “stimulation of TLR3 reporter cells (SEAP)” value in series [3] is recorded as “not”. Moreover, the “stimulation of HEK-TLR7 cells to produce IL-8” value in series [4] is “stimulated”. `CN[C@@H]1C[C@H]2O[C@@](C)([C@@H]1OC)n1c3ccccc3c3c4c(c5c6ccccc6n2c5c31)C(=O)NC4` [staurosporine]: in series [5], the “induction of RIG-I, MDA-5 and PKR expression” value is reported as “not observed”. Regarding polyI:C, the “stimulation of TLR3 reporter cells (SEAP)” value in series [3] is recorded as “specifically stimulated”. In series [4], the “stimulation of HEK-TLR7 cells to produce IL-8” value was “not”.
